Measured values published in patent US7863325B2, “Crystalline genistein sodium salt dihydrate” (Axcentua Pharmaceuticals AB, priority 2008, dated 2011).
Converted amounts (≈) assume the structure as drawn. Where two headings read alike, the source gives them in different places.

Experiments:
[1] = cited from earlier work
[2] = SuperSol 1000 kinetic and equilibrium solubility assay
[3] = Aqueous solubility (slurry shaken ca. 24 hours, filtered, HPLC); type: physicochemical
Experimental: Aqueous Solubility: Aqueous solubility was measured using the following protocol. Slurries of genistein and of crystalline genistein sodium dihydrate salt were made up in aqueous media in which pH was set at 4.5, 6.7, and 7.5, each slurry was shaken at ambient temperature for ca. 24 hours and then filtered using a 0.2 μm filter into a clean vial. The saturated solutions were then diluted and analyzed for API (genistein) content using N-Ac-DL-Methionine on a Chirobiotic T HPLC column and UV detector set at λmax=270 nm. The mobile phase was acetonitrile/water run in isocratic mode over a 30 minute period. The results are presented in Table 3, (BDL=below detection limits).

[4] = rat, mean ± SD, n = 3
Experimental: Preparation of Dosing Solutions for In-Vivo Study: Genistein and Crystalline genistein sodium salt dihydrate were stored at room temperature under desiccant and protected from light. The dosing solutions were prepared fresh from powders on the day of dosing. The dosing solution for intravenous administration (IV) was prepared at 1 mg/mL (free acid) in 50:50 DMSO:saline. The dosing solutions for intraduodenal administration (ID) were prepared at 2 mg/mL (genistein free acid) in a 0.2% sodium carboxymethyl cellulose (Na CMC) solution in water.
Animal Dosing: The pharmacokinetics of genistein was evaluated in fasted male Sprague-Dawley rats. Each animal was fitted with a jugular vein cannula (JVC) for blood sampling. Animals intended for intravenous dosing were fitted with an additional JVC for dose administration. Animals intended for intraduodenal dosing were fitted with an intraduodenal cannula (IDC) for dose administration. Surgically modified animals were housed one per cage. All animals were supplied with a commercial rodent diet (LabDiet, Certified Rodent Diet #5002) ad libitum prior to study initiation. […] Water was supplied ad libitum.
Intraduodenal dosing solutions were administered as a single bolus dose at time zero on the day of dosing. Intravenous doses were administered as a slow IV injection over approximately 1 minute. Blood sampling times began at the end of the infusion. Blood samples were collected.
Each blood sample was collected from the rats via a jugular vein cannula and placed into chilled polypropylene tubes containing sodium heparin as an anticoagulant. Samples were centrifuged at a temperature of 4° C. and at a speed of 13,000 rpm for 5 minutes. Samples were maintained chilled throughout processing. Each plasma sample was split into two aliquots. The first aliquot contained 50 μL of plasma. All remaining plasma volume was used for the second aliquot. Samples were then placed on dry ice, and stored in a freezer set to maintain −60° C. to −80° C. The total concentration of genistein in plasma samples were analyzed by LC-MS/MS after an overnight incubation with glucuronidase/arylsulfatase enzyme mixture. Pharmacokinetic parameters were calculated using the WinNonlin software.
Analysis of Plasma Samples: An LC-MS/MS analytical method for the determination of genistein in rat plasma was developed. Prior to sample analysis, a standard curve was analyzed to determine the specificity, range, and linearity of the method. Total genistein in plasma samples was determined by pre-treating all samples with β-glucuronidase/arylsulfatase enzymes and incubating prior to analysis. Incubation with the enzyme mix deconjugated any glucuronide or sulfate metabolites of genistein back to the parent form.
Acceptance Criteria for LC-MS/MS Analysis: One standard curve was dispersed throughout each analytical run. At least ⅝ of the standards must be accurate to within ±20%, except at the LLOQ where ±25% is acceptable, in order for the run to pass.
Pharmacokinetic Analysis: Individual plasma concentrations versus time data for genistein were subjected to non-compartmental analysis using the pharmacokinetic program WinNonlin v. […] Plasma concentrations below the limit of quantitation (10 ng/mL) were assigned a value of zero for PK analysis only.

[5] = Solubility in different solvents (aliquot addition until dissolution); type: physicochemical
Experimental: Solubility in different solvents: Solubility in different organic solvents was measured using the following protocol. Approximately 25 mg portions of genistein and crystalline genistein sodium dihydrate salt were placed in 48 different vials, separately. 5 volume aliquots of each solvent were added exclusively to a vial. Between each addition, the mixture was checked for dissolution and if no dissolution was apparent, the procedure was continued until dissolution was observed or when 50 volumes had been added.

O=c1c(-c2ccc(O)cc2)coc2cc(O)cc(O)c12 [Genistein, 4′,5,7-trihydroxyisoflavone-5,7-dihydroxy-3-(4-hydroxyphenyl)-4H-1-benzopyran-4-one]
Solubility in water (in words) ([1]; background statement): practically insoluble | Aqueous solubility (reported) ([1]; reported range): 0.01 to 0.04 µM | C[Eq] (late kinetic solubility) ([2]; EtOH 100%): 13.79 mg×1^−1 | C[MSS] (early kinetic solubility) ([2]; EtOH 100%): 5.81 mg×1^−1 | ISI (Intrinsic Solubility Index) ([2]; EtOH 100%): 2.11 | ISI / late solubility profile, rating in words ([2]; EtOH 100%): good | KSR (Kinetic Solubility ratio) ([2]; EtOH 100%): 0.42 | KSR, rating in words ([2]; EtOH 100%): acceptable | MSS (Maximum Solubility Speed) ([2]; EtOH 100%): 23.81 mg×1^−1×min^−1 | MSS, rating in words ([2]; EtOH 100%): good | ΔC [C, − CMSS] ([2]; EtOH 100%): 7.98 mg×1^−1 | C[Eq] (late kinetic solubility) ([2]; EtOH/dH2O 50/50 (vol/vol)): 12.87 mg×1^−1 | C[MSS] (early kinetic solubility) ([2]; EtOH/dH2O 50/50 (vol/vol)): 7.43 mg×1^−1 | ISI (Intrinsic Solubility Index) ([2]; EtOH/dH2O 50/50 (vol/vol)): 1.55 | ISI / late solubility profile, rating in words ([2]; EtOH/dH2O 50/50 (vol/vol)): good | KSR (Kinetic Solubility ratio) ([2]; EtOH/dH2O 50/50 (vol/vol)): 0.58 | KSR, rating in words ([2]; EtOH/dH2O 50/50 (vol/vol)): acceptable | MSS (Maximum Solubility Speed) ([2]; EtOH/dH2O 50/50 (vol/vol)): 12.18 mg×1^−1×min^−1 | MSS, rating in words ([2]; EtOH/dH2O 50/50 (vol/vol)): good | ΔC [CEq − CMSS] ([2]; EtOH/dH2O 50/50 (vol/vol)): 5.44 mg×1^−1 | C[Eq] (late kinetic solubility) ([2]; EtOH/dH2O 75/25 (vol/vol)): 14.03 mg×1^−1 | C[MSS] (early kinetic solubility) ([2]; EtOH/dH2O 75/25 (vol/vol)): 8.52 mg×1^−1 | ISI (Intrinsic Solubility Index) ([2]; EtOH/dH2O 75/25 (vol/vol)): 1.49 | ISI / late solubility profile, rating in words ([2]; EtOH/dH2O 75/25 (vol/vol)): good | KSR (Kinetic Solubility ratio) ([2]; EtOH/dH2O 75/25 (vol/vol)): 0.61 | KSR, rating in words ([2]; EtOH/dH2O 75/25 (vol/vol)): good | MSS (Maximum Solubility Speed) ([2]; EtOH/dH2O 75/25 (vol/vol)): 19.67 mg×1^−1×min^−1 | MSS, rating in words ([2]; EtOH/dH2O 75/25 (vol/vol)): good | ΔC [CEq − CMSS] ([2]; EtOH/dH2O 75/25 (vol/vol)): 5.51 mg×1^−1 | Aqueous solubility ([3]; Water/slurry pH 4.5, ambient temperature): BDL | Aqueous solubility ([3]; Water/slurry pH 6.7, ambient temperature): BDL | Aqueous solubility ([3]; Water/slurry pH 7.5, ambient temperature): BDL | AUClast ([4]; intraduodenal, 20 mg/kg): 414 ± 111 kg·ng·h/mL/mg | AUClast ([4]; intravenous, 1 mg/kg): 2533 ± 638 kg·ng·h/mL/mg | AUC∞ ([4]; intravenous, 1 mg/kg): 2584 ± 639 kg·ng·h/mL/mg | solubility ([5]; aqueous with cosolvent or surfactant or cyclodextrin, thermodynamic from solid, Acetone/Water (50:50)): < 10.1 mg/mL | solubility ([5]; organic solvent or mixture, thermodynamic from solid, 1,4-dioxane): < 10.3 mg/mL | solubility ([5]; organic solvent or mixture, thermodynamic from solid, 1-Butanol (BuOH)): < 10.5 mg/mL | solubility ([5]; organic solvent or mixture, thermodynamic from solid, 2-Propanol (IPA)): < 10.5 mg/mL | solubility ([5]; organic solvent or mixture, thermodynamic from solid, Acetone): ~17 mg/mL (≈ 62.9 mM) | solubility ([5]; organic solvent or mixture, thermodynamic from solid, Acetone/IPA (50:50)): 20.1 mg/mL (≈ 74.4 mM) | solubility ([5]; organic solvent or mixture, thermodynamic from solid, Acetonitrile (MeCN)): < 10.1 mg/mL | solubility ([5]; organic solvent or mixture, thermodynamic from solid, Cyclohexane): < 10.7 mg/mL | solubility ([5]; organic solvent or mixture, thermodynamic from solid, Dichloromethane (DCM)): < 10.3 mg/mL | solubility ([5]; organic solvent or mixture, thermodynamic from solid, Diisopropylether (DIPE)): < 10.6 mg/mL | solubility ([5]; organic solvent or mixture, thermodynamic from solid, Dimethyl sulfoxide (DMSO)): ~100 mg/mL (≈ 370 mM) | solubility ([5]; organic solvent or mixture, thermodynamic from solid, Ethanol (EtOH)): < 10.8 mg/mL | solubility ([5]; organic solvent or mixture, thermodynamic from solid, Heptane): < 10.5 mg/mL | solubility ([5]; organic solvent or mixture, thermodynamic from solid, Methanol (MeOH)): < 10.6 mg/mL | solubility ([5]; organic solvent or mixture, thermodynamic from solid, Methyl acetate (MeOAc)): < 10.3 mg/mL | solubility ([5]; organic solvent or mixture, thermodynamic from solid, Methyl isobutyl ketone (MIBK)): < 10.1 mg/mL | solubility ([5]; organic solvent or mixture, thermodynamic from solid, Methylethyl ketone (MEK)): < 10.8 mg/mL | solubility ([5]; organic solvent or mixture, thermodynamic from solid, N-Methyl-2-pyrrolidinone (NMP)): ~68 mg/mL (≈ 252 mM) | solubility ([5]; organic solvent or mixture, thermodynamic from solid, N-N-dimethylformamide (DMF)): ~100 mg/mL (≈ 370 mM) | solubility ([5]; organic solvent or mixture, thermodynamic from solid, Octanol): < 10.5 mg/mL | solubility ([5]; organic solvent or mixture, thermodynamic from solid, Tetrahydrofuran (THF)): 26.3 mg/mL (≈ 97.3 mM) | solubility ([5]; organic solvent or mixture, thermodynamic from solid, Toluene): < 10.1 mg/mL | solubility ([5]; organic solvent or mixture, thermodynamic from solid, Toluene/Dioxane (50:50)): < 10.1 mg/mL | solubility ([5]; organic solvent or mixture, thermodynamic from solid, tert-Butylmethyl ether (TBME)): < 10.5 mg/mL
